Test results published in US20030036518A1, “ARTIFICIAL POLYMERIC MEMBRANE STRUCTURE, METHOD FOR PREPARING SAME, METHOD FOR PREPARING THIS POLYMER, PARTICLE AND FILM CONTAINING THIS STRUCTURE” (priority 1996, published 2003).

Columns and labels:
Assay type in all cases: physicochemical
[1] = Association of doxorubicin with porous particles; conditions: 5 mg doxorubicin hydrochloride, 5 mg SEPHADEX® C25, 2 h at 4° C.
Description: The overall procedure was as in example 7, but incorporating doxorubicin (C27H29NO11,PM543, 53) in place of haemoglobin, 5 mg of doxorubicin hydrochloride being dissolved in 1 ml of distilled water and incubated with 5 mg of porous particles (SEPHADEX® C25) substituted with carboxymethyl groups. The pore size of the particles was such that molecules with a maximum molecular weight of 25000 could penetrate. The suspension was stirred for 2 h at 4° C. with a planetary stirrer. It was then decanted and the free doxorubicin concentration was measured by UV spectrophotometry at 480 nm. […] The non-absorbed doxorubicin fraction was removed by decanting and washing the cake with distilled water.

[2] = Association of doxorubicin with small-size porous particles; conditions: 5 mg doxorubicin, 5 mg small-size porous particles, 2 h
Description: The procedure was as in example 10, but an attempt was made to prepare smaller sized porous particles. 1 g of SEPHADEX® C25 porous matrix was dispersed in 100 ml of distilled water and the preparation was ground for 15 min with a helical mill. The preparation was then centrifuged at 3000 g for 10 min and the supernatant was recovered and then subjected to further centrifuging at 25000 g for 45 min. The supernatant was removed, the cake was put back into suspension and 50 mg of a dry product were obtained following freeze-drying. The size of the particles obtained, measured by a particle analyzer, was between 300 and 500 nm.
5 mg of these small-size porous particles were dispersed in 5 ml of distilled water. 5 mg of doxorubicin were added and the whole was stirred for 2 h. The concentration of doxorubicin not associated with the particles was determined by ultrafiltration of an aliquot of the suspension through an ultrafiltration membrane of which the separation threshold was 50000, and the concentration of free doxorubicin was measured by UV spectrometry at 480 nm. […] These were then used as they were without supplementary purification.

[3] = Absorption of haemoglobin on the porous substrate; conditions: 20 mg haemoglobin, 5 mg SEPHADEX® SPC50, pH 6.5, 24 h at 4° C.
Description: 5 mg of porous particles (SEPHADEX® SPC50) with a diameter of 150 μm substituted with sulfopropyl groups and having a pore size sufficient to allow the penetration of molecules with a maximum molecular weight of 250000, were dispersed in 5 ml of a 10 mM bi-tri buffer, of pH 6.5 (where the haemoglobin is cationic and is attracted inside the anionic sites of the porous particles). 20 mg of haemoglobin, extracted from human erythrocytes by the lysis method in a hypotonic medium, were then added to this dispersion. The preparation was stirred for 24 h at 4° C. on a planetary stirrer. The particles were then decanted and the quantity present in the supernatant was determined by UV spectrometry at 410 nm. […] The non-absorbed haemoglobin was removed by decanting the particles and washing them with a 10 mM bi-tri buffer.

doxorubicin associated with the particles [1] | doxorubicin associated with the particles [2] | Compound | haemoglobin present inside the particles [3]
more than 97% | more than 98% | COc1cccc2c1C(=O)c1c(O)c3c(c(O)c1C2=O)C[C@@](O)(C(=O)CO)C[C@@H]3O[C@H]1C[C@H](N)[C@H](O)[C@H](C)O1 [doxorubicin] | 
 |  | haemoglobin: haemoglobin extracted from human erythrocytes by the lysis method in a hypotonic medium | more than 98%
